The values below come from ChEMBL document CHEMBL6114988, “Design, synthesis and biological evaluation of dual CDK9/PARP inhibitors for the treatment of cancer” (Eur J Med Chem, 2025).

The structures appear in SMILES notation.

Series [1] concerns the target Poly [ADP-ribose] polymerase 1 (Homo sapiens, UniProt P09874). The series is described as follows: Inhibition of PARP1 (unknown origin) incubated for 1 hr by ELISA. On the technique in general: In an ELISA, binding on a coated surface is turned into a signal by an enzyme label.
Series [2] deals with Cyclin-dependent kinase 9 (Homo sapiens, UniProt P50750).
Description: Inhibition of CDK9 (unknown origin) using lipid substrate incubated for 40 mins in presence of ATP by kinase-Glo plus luminescence assay
The next series has as its system MOLM-13. The experiment in a line: Antiproliferative activity against human MOLM-13 cells assessed as inhibition of cell proliferation incubated for 48 hrs by CCK-8 assay. In kind it is functional, cell-based. The settings on record: MOLM-13, 48 h. In general terms: Tetrazolium assays rely on reduction of a dye to a coloured formazan, in cell work by metabolically active cells.

Another series concerns MV4-11. The experiment in a line: Antiproliferative activity against human MV4-11 cells assessed as inhibition of cell proliferation incubated for 48 hrs by CCK-8 assay. As to conditions: MV4-11, 48 h. In kind it is functional, cell-based.
In series [3] the test system is MDA-MB-231. The experiment in a line: Induction of apoptosis in human MDA-MB-231 cells assessed as viable cell at 2 uM incubated for 24 hrs by Annexin V-FITC/PI staining based analysis (reference value: 96.3 %). In kind it is functional.
In series [4] the test system is MDA-MB-231. The series is described as follows: Induction of apoptosis in human MDA-MB-231 cells assessed as early apoptotic cell at 2 uM incubated for 24 hrs by Annexin V-FITC/PI staining based analysis (reference value: 0.96 %). In kind it is functional.
In series [5] the test system is MDA-MB-231. The experiment in a line: Induction of apoptosis in human MDA-MB-231 cells assessed as late apoptotic cell at 2 uM incubated for 24 hrs by Annexin V-FITC/PI staining based analysis (reference value: 2.61 %). It counts as functional.
In series [6] the test system is MDA-MB-231. The series is described as follows: Induction of apoptosis in human MDA-MB-231 cells assessed as necrotic cell at 2 uM incubated for 24 hrs by Annexin V-FITC/PI staining based analysis (reference value: 0.10 %). It counts as functional.
The test system of series [7] is MDA-MB-231. The series is described as follows: Induction of cell cycle arrest in human MDA-MB-231 cells assessed as accumulation of cells at G1 phase at 2 uM incubated for 24 hrs by PI staining based flow cytometric analysis (reference value: 58.1%). It counts as functional.
For series [8], the system named is MDA-MB-231. The experiment in a line: Induction of cell cycle arrest in human MDA-MB-231 cells assessed as accumulation of cells at S phase at 2 uM incubated for 24 hrs by PI staining based flow cytometric analysis (reference value: 29.2%). It counts as functional.
The test system of series [9] is MDA-MB-231. The experiment in a line: Induction of cell cycle arrest in human MDA-MB-231 cells assessed as accumulation of cells at G2/M phase at 2 uM incubated for 24 hrs by PI staining based flow cytometric analysis (reference value: 11.3%). In kind it is functional.
A short description of series [10]: Metabolic stability in rat liver microsomes assessed as half life at 1 mg/ml incubated for 60 min in presence of NADPH by HPLC analysis. In kind it is ADME, Microsome.
Series [11] is described as follows: Metabolic stability in artificial gastric fluid assessed as parent compound remaining at 1 mg/ml incubated for 8 hrs by HPLC analysis. It counts as ADME. The settings on record: read-out: Stability.
A short description of series [12]: Metabolic stability in artificial intestinal fluid assessed as parent compound remaining at 1 mg/ml incubated for 8 hrs by HPLC analysis. It counts as ADME. The settings on record: read-out: Stability.
Series [13] is described as follows: Metabolic stability in plasma assessed as parent compound remaining incubated for 3 hrs by HPLC analysis. As to conditions: read-out: Stability. In kind it is ADME, cell-free.
For the next series, the system named is HCT-116. The series is described as follows: cells. The settings on record: Homo sapiens, HCT-116, 48 h.
In another series the test system is MCF7. The series is described as follows: cells. The settings on record: Homo sapiens, MCF7, 48 h.
Series [14] concerns MDA-MB-231. The series is described as follows: cells. The settings on record: Homo sapiens, MDA-MB-231, 48 h.
Description: Antiproliferative activity against human MDA-MB-231 cells assessed as inhibition of cell proliferation incubated for 48 hrs by CCK-8 assay
The target in series [15] is CDK9/cyclin T1 (Homo sapiens) (UniProt O60563+P50750). As to conditions: dose 200.0 nM, time 70.0 min.
The subject of the next series is HeLa. The series is described as follows: cells. As to conditions: Homo sapiens, 48 h.

Poly [ADP-ribose] polymerase 1, sequence (P09874 whole entry): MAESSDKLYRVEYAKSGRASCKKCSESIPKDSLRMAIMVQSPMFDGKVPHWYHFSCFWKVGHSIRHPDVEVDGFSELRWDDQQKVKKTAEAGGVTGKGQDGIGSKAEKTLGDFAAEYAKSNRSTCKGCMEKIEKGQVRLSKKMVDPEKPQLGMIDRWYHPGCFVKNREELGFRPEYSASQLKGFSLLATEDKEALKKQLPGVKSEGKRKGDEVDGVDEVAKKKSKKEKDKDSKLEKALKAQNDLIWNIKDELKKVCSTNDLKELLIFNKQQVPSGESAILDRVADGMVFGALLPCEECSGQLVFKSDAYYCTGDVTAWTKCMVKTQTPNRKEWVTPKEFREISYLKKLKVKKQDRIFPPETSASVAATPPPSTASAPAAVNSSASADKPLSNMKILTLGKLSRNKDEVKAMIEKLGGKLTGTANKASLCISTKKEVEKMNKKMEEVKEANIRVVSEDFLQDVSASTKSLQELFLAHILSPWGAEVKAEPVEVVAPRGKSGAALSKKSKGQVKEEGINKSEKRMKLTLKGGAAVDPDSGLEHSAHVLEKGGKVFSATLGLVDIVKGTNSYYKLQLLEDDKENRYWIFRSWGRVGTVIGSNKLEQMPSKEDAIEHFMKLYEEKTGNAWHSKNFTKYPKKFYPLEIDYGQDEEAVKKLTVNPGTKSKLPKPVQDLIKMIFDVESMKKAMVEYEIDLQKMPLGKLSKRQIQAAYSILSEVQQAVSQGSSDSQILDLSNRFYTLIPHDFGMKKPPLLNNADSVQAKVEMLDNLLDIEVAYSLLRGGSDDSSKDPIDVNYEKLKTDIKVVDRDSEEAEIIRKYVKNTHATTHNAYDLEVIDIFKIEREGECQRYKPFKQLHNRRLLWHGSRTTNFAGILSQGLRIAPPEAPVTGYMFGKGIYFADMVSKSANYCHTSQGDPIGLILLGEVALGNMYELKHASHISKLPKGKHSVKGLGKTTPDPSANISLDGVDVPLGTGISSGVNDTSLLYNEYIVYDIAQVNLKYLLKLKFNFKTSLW
Cyclin-dependent kinase 9, sequence (P50750 whole entry): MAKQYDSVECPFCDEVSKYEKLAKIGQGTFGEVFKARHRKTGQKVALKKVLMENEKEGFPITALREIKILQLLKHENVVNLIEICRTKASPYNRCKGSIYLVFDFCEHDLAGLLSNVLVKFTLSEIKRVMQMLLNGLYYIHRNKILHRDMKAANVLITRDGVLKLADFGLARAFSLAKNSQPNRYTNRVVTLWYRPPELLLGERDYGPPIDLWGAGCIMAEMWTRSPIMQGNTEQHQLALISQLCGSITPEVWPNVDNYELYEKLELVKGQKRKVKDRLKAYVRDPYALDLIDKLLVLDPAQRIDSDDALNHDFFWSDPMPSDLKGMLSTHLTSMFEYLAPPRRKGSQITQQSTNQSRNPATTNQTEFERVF
Description for HCT-116: Antiproliferative activity against human HCT-116 cells assessed as inhibition of cell proliferation incubated for 48 hrs by CCK-8 assay
Description for HeLa: Antiproliferative activity against human HeLa cells assessed as inhibition of cell proliferation incubated for 48 hrs by CCK-8 assay
Description for MCF7: Antiproliferative activity against human MCF7 cells assessed as inhibition of cell proliferation incubated for 48 hrs by CCK-8 assay

Turning to `COc1cccc(F)c1-c1cc(Nc2cc(CN3CCN(C(=O)c4cc(Cc5n[nH]c(=O)c6ccccc56)ccc4F)CC3)ccn2)ncc1F`, the IC50 in series [1] amounted to 16 nM; in series [2], 61 nM.

As for `CCOc1cc(F)ccc1-c1cc(Nc2cc(CN3CCN(C(=O)c4cc(Cc5n[nH]c(=O)c6ccccc56)ccc4F)CC3)ccn2)ncc1F`, the IC50 in series [1] is 32 nM; in series [2], 59 nM.

As for `COc1ccc(F)cc1-c1cc(Nc2cc(CN3CCN(C(=O)c4cc(Cc5n[nH]c(=O)c6ccccc56)ccc4F)CC3)ccn2)ncc1F`, the figures for the IC50 in series [1] and in [2] were 48 nM and 31 nM, respectively.

In the case of `O=C(c1cc(Cc2n[nH]c(=O)c3ccccc23)ccc1F)N1CCN(C(=O)C2CC2)CC1` [OLAPARIB], the IC50 in the series on MOLM-13 is 43100 nM; in the series on MV4-11, 15200 nM; in the series on HCT-116 it was 200000 nM; in the series on MCF7, 195000 nM; in the series on MDA-MB-231 [14], over 50000 nM. Moreover, the Activity stood at 96.8% in the series on MDA-MB-231 [3]; 0.59% in the series with MDA-MB-231 [4]; 2.13% in the series on MDA-MB-231 [5]; 0.48% in the series on MDA-MB-231 [6]; 48.7% in the series with MDA-MB-231 [7]; 35.8% with MDA-MB-231 [8]. Moreover, the Activity in the series on MDA-MB-231 [9] was 14.1%. In [10], the half-life at 1 mg/ml was 1.86 h. Besides, the remaining at 8 h, 1 mg/ml in [11] stood at 99.4%; in series [12] it was 100%. In addition, in [13], the remaining at 3 h is 99.4%.

For `COc1ccc(-c2cc(Nc3cc(CN4CCN(C(=O)c5cc(Cc6n[nH]c(=O)c7ccccc67)ccc5F)CC4)ccn3)ncn2)c(OC)c1`, the IC50 in series [1] was determined as 10 nM; in the series with MOLM-13, 4050 nM; with MV4-11 it was 1420 nM; in series [2], 29 nM; with HeLa it was 1210 nM; in the series with HCT-116, 2520 nM. The IC50 with MCF7 and with MDA-MB-231 [14] was over 50000 nM throughout. This compound also had an inhibition in series [15] of 73.9%.

As to `COc1ccc(-c2cc(Nc3cc(CN4CCN(C(=O)c5cc(Cc6n[nH]c(=O)c7ccccc67)ccc5F)CC4)ccn3)ncc2F)c(OC)c1`, the IC50 in series [1] came to 30 nM; in [2] it was 31 nM.

In the case of `COc1cc(F)ccc1-c1nc(Nc2cc(CN3CCN(C(=O)c4cc(Cc5n[nH]c(=O)c6ccccc56)ccc4F)CC3)ccn2)ncc1F`, the IC50 in series [1] amounted to 91 nM; in [2], 2350 nM.

The term IC50 denotes the midpoint of a concentration-inhibition curve. One may read the half-life as how long it takes for the measured level to halve. Broadly, the inhibition is the change of the read-out against control, counted positive when it falls. A lower inhibition goes with a weak effect.
